# According to the supplement of paper PMC11061612:
# Legend:
# [1] = tested on: MES-SA (Other Solid Carcinomas); assay: combination Emax (second highest fraction inhibited in the dose matrix, 72 h); higher = more inhibition; extreme values may be limits of the assay
# How it was run: (§1)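 Bliss excess equals the observed combination effect minus the expected value EA + EB − EA·EB, where EA and EB are the effects of each agent alone. Combination Emax is the second-highest inhibition within the matrix. Inhibition was scaled from CellTiter-Glo 2.0 luminescence, with 0 set by vehicle wells and 1 by blank wells, after 72 hours of two-drug dosing of cells plated in 1536-well plates.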
# [2] = tested on: KG-1 (Acute Myeloid Leukemia); assay: as above
# How it was run: as §1
# [3] = tested on: H4 (Low Grade Glioma); assay: as above
# How it was run: as §1
# [4] = tested on: SK-UT-1 (Other Solid Carcinomas); assay: as above
# How it was run: as §1
# [5] = tested on: HOP-92 (Non-Small Cell Lung Carcinoma); assay: as above
# How it was run: as §1
# [6] = tested on: EW-22 (Ewing's Sarcoma); assay: Bliss excess, mean over the matrix (fraction); higher = more synergy
# How it was run: as §1
# [7] = tested on: JHH-6 (Hepatocellular Carcinoma); assay: as above
# How it was run: as §1
# [8] = tested on: KG-1 (Acute Myeloid Leukemia); assay: as above
# How it was run: as §1
# [9] = tested on: SK-MEL-1 (Melanoma); assay: as above
# How it was run: as §1
# [10] = tested on: MEG-01 (Chronic Myelogenous Leukemia); assay: as above
# How it was run: as §1
# [11] = tested on: PA-TU-8902 (Pancreatic Carcinoma); assay: as above
# How it was run: as §1
# [12] = tested on: CS1 (Chondrosarcoma); assay: as above
# How it was run: as §1
# [13] = tested on: SW948 (Colorectal Carcinoma); assay: as above
# How it was run: as §1
# [14] = tested on: ETK-1 (Biliary Tract Carcinoma); assay: as above
# How it was run: as §1
# [15] = tested on: HCC38 (Breast Carcinoma); assay: as above
# How it was run: as §1
# [16] = tested on: BICR78 (Oral Cavity Carcinoma); assay: as above
# How it was run: as §1
# [17] = tested on: DOK (Oral Cavity Carcinoma); assay: as above
# How it was run: as §1
# [18] = tested on: HuO9 (Osteosarcoma); assay: as above
# How it was run: as §1
# [19] = tested on: HOP-92 (Non-Small Cell Lung Carcinoma); assay: as above
# How it was run: as §1
Compound,combination Emax [1],combination Emax [2],combination Emax [3],combination Emax [4],combination Emax [5],Bliss excess [6],Bliss excess [7],Bliss excess [8],Bliss excess [9],Bliss excess [10],Bliss excess [11],Bliss excess [12],Bliss excess [13],Bliss excess [14],Bliss excess [15],Bliss excess [16],Bliss excess [17],Bliss excess [18],Bliss excess [19]
"CN(C)CCCOc1ccc(-c2ccc3ncc4c(c3c2)n(C2CCOCC2)c(=O)n4C)cn1 [AZD0156] + O=C(c1cc(Cc2n[nH]c(=O)c3ccccc23)ccc1F)N1CCN(C(=O)C2CC2)CC1 [Olaparib] (first compound max 3 µM, partner max 3 µM)",0.353,0.336,0.536,0.257,0.256,0.217,-0.019,0.0474,-0.0491,0.0239,-0.0456,0.0148,-0.0231,-0.0029,0.0454,-0.0507,0.0549,0.0888,0.0111
"C=CCn1c(=O)c2cnc(Nc3ccc(N4CCN(C)CC4)cc3)nc2n1-c1cccc(C(C)(C)O)n1 [AZD1775] + C1CN(CCC1(C(=O)N[C@@H](CCO)C2=CC=C(C=C2)Cl)N)C3=NC=NC4=C3C=CN4 [Capivasertib] (first compound max 3 µM, partner max 3 µM)",0.863,0.852,0.942,0.817,0.551,0.0403,-0.0294,0.0152,-0.059,,-0.0609,-0.0394,-0.003,-0.107,-0.105,-0.0822,0.0014,-0.0495,0.0152
"COc1nnc2ccc(N3CCC(c4ccc(OCCN5CCN(C)C(=O)[C@H]5C)cc4)CC3)nn12 [AZD5153] + C=CCn1c(=O)c2cnc(Nc3ccc(N4CCN(C)CC4)cc3)nc2n1-c1cccc(C(C)(C)O)n1 [AZD1775] (first compound max 1 µM, partner max 1 µM)",0.685,0.861,0.884,0.787,0.406,0.0427,-0.048,0.004,-0.0312,-0.0693,0.0421,-0.0172,-0.11,-0.0736,-0.107,-0.0302,-0.0239,-0.035,-0.0301
"COc1nnc2ccc(N3CCC(c4ccc(OCCN5CCN(C)C(=O)[C@H]5C)cc4)CC3)nn12 [AZD5153] + CC1(C)CCC(CN2CCN(c3ccc(C(=O)NS(=O)(=O)c4ccc(NCC5CCOCC5)c([N+](=O)[O-])c4)c(Oc4cnc5[nH]ccc5c4)c3)CC2)=C(c2ccc(Cl)cc2)C1 [Venetoclax] (first compound max 1 µM, 7x7, partner max 1 µM)",0.386,1,0.677,0.543,0.362,-0.0176,-0.0443,0.163,0.0777,-0.0627,-0.0908,-0.054,-0.0016,-0.11,-0.0324,-0.0468,-0.0696,-0.0198,-0.0242
"COc1nnc2ccc(N3CCC(c4ccc(OCCN5CCN(C)C(=O)[C@H]5C)cc4)CC3)nn12 [AZD5153] + CCN(CCO)CCCOc1ccc2c(Nc3cc(CC(=O)Nc4cccc(F)c4)[nH]n3)ncnc2c1 [AZD2811] (first compound max 1 µM, 7x7, partner max 1 µM)",0.587,0.789,0.668,0.658,0.402,-0.0779,-0.0683,0.0074,-0.0295,-0.047,-0.0246,-0.0284,-0.102,-0.118,-0.0398,-0.0537,-0.0906,-0.0983,-0.079
"COc1nnc2ccc(N3CCC(c4ccc(OCCN5CCN(C)C(=O)[C@H]5C)cc4)CC3)nn12 [AZD5153] + C[C@@H]1COCCN1C2=NC(=NC(=C2)C3(CC3)[S@](=N)(=O)C)C4=C5C=CNC5=NC=C4 [AZD6738] (first compound max 1 µM, 7x7, partner max 10 µM)",0.763,0.905,0.796,0.925,0.374,-0.0258,-0.0111,0.0159,0.0103,-0.0595,0.0565,-0.0559,-0.0493,0.0107,-0.0182,0.0056,0.008,0.031,0.0246
"COc1nnc2ccc(N3CCC(c4ccc(OCCN5CCN(C)C(=O)[C@H]5C)cc4)CC3)nn12 [AZD5153] + Cc1c2c(nn1C)CSCc1cc(n(C)n1)CSc1cc(c3ccccc3c1)OCCCc1c(C(=O)O)n(C)c3c-2c(Cl)ccc13 [AZD5991] (first compound max 1 µM, 7x7, partner max 1 µM)",0.593,1,0.888,0.653,0.386,0.0553,-0.0727,0.0382,-0.0016,-0.0104,-0.0316,-0.0342,-0.0482,-0.0436,-0.0019,-0.027,-0.0051,0.0377,-0.001
"COc1nnc2ccc(N3CCC(c4ccc(OCCN5CCN(C)C(=O)[C@H]5C)cc4)CC3)nn12 [AZD5153] + Cn1cnc2c(F)c(Nc3ccc(Br)cc3Cl)c(C(=O)NOCCO)cc21 [Selumetinib] (first compound max 1 µM, 7x7, partner max 10 µM)",0.478,0.817,0.699,0.486,0.556,-0.0668,0.0053,0.024,0.0933,-0.0222,-0.0869,0.01,-0.0006,-0.0451,-0.0392,-0.0454,-0.0297,0.0052,0.0604
"NC1(C(=O)N[C@@H](CCO)c2ccc(Cl)cc2)CCN(c2ncnc3[nH]ccc23)CC1 [Capivasertib] + CC(=O)c1c(C)c2cnc(Nc3ccc(N4CCNCC4)cn3)nc2n(C2CCCC2)c1=O [Palbociclib] (first compound max 10 µM, 7x7, partner max 10 µM)",0.607,0.398,0.751,0.458,0.466,-0.0152,-0.0503,-0.0421,-0.0307,-0.0355,-0.0606,0.016,-0.0442,-0.0711,-0.023,-0.0093,0.016,-0.0311,0.0322
"NC1(C(=O)N[C@@H](CCO)c2ccc(Cl)cc2)CCN(c2ncnc3[nH]ccc23)CC1 [Capivasertib] + CC(C)n1c(=O)n(C)c2cnc3cc(F)c(-c4ccc(OCCCN5CCCCC5)nc4)cc3c21 [AZD1390] (first compound max 10 µM, 7x7, partner max 0.3 µM)",0.469,0.241,0.515,0.354,0.376,-0.0613,-0.0908,-0.0386,-0.0207,-0.0245,-0.0859,-0.0698,-0.0943,-0.0189,-0.0314,-0.0552,-0.0428,-0.0009,-0.0238
"NC1(C(=O)N[C@@H](CCO)c2ccc(Cl)cc2)CCN(c2ncnc3[nH]ccc23)CC1 [Capivasertib] + CCN(CCO)CCCOc1ccc2c(Nc3cc(CC(=O)Nc4cccc(F)c4)[nH]n3)ncnc2c1 [AZD2811] (first compound max 10 µM, 7x7, partner max 1 µM)",0.756,0.458,0.58,0.522,0.458,-0.0366,-0.0301,-0.0204,0.0563,-0.0484,-0.0381,-0.0211,-0.0161,-0.012,0.0054,-0.0092,-0.0355,0.0135,-0.0285
"NC1(C(=O)N[C@@H](CCO)c2ccc(Cl)cc2)CCN(c2ncnc3[nH]ccc23)CC1 [Capivasertib] + COc1nnc2ccc(N3CCC(c4ccc(OCCN5CCN(C)C(=O)[C@H]5C)cc4)CC3)nn12 [AZD5153] (first compound max 10 µM, 7x7, partner max 1 µM)",0.621,0.852,0.744,0.658,0.405,0.08,-0.0365,-0.0162,0.0315,-0.0355,-0.0841,0.0057,-0.0082,0.0486,-0.022,0.0135,0.03,-0.0142,-0.0027
"CS(=O)(=O)CCNCc1ccc(-c2ccc3ncnc(Nc4ccc(OCc5cccc(F)c5)c(Cl)c4)c3c2)o1 [Lapatinib] + Cn1cnc2c(F)c(Nc3ccc(Br)cc3Cl)c(C(=O)NOCCO)cc21 [Selumetinib] (first compound max 10 µM, 7x7, partner max 10 µM)",,,0.27,0.501,,-0.0366,,,-0.0654,-0.0206,,-0.0337,-0.0086,,-0.0168,-0.0343,-0.113,,
"CS(=O)(=O)CCNCc1ccc(-c2ccc3ncnc(Nc4ccc(OCc5cccc(F)c5)c(Cl)c4)c3c2)o1 [Lapatinib] + NC1(c2ccc(-c3nc4ccn5c(=O)[nH]nc5c4cc3-c3ccccc3)cc2)CCC1 [MK-2206] (first compound max 10 µM, 7x7, partner max 10 µM)",,,0.883,0.636,0.685,0.0308,,,-0.0408,0.0128,-0.0237,-0.0142,0.049,-0.0441,0.037,0.0068,0.0212,0.0257,0.0328
"Cc1nc(-c2cn3c(n2)-c2ccc(-c4cnn(C(C)(C)C(N)=O)c4)cc2OCC3)n(C(C)C)n1 [Taselisib] + O=C(Nc1ccc2[nH]nc(-c3ccncc3)c2c1)[C@@H]1CCN(CC(=O)N2CCN(c3ccc(-c4ncccn4)cc3)CC2)C1 [SCH772984] (first compound max 10 µM, 7x7, partner max 5 µM)",,,0.68,0.485,,0.0152,,,0.0839,0.0128,,0.0942,0.032,,0.0325,-0.011,-0.0218,,
